From ChEMBL document CHEMBL1132673, “Preparation and immunosuppressive activity of 32-(O)-acylated and 32-(O)-thioacylated analogues of ascomycin” (1999)

Key:
Mus musculus = species: Mus musculus; test: In vitro immunosuppressive activity measured in the mouse mixed lymphocyte reaction (MLR) expressed as relative inhibitory concentration (rIC50) relative to FK506 IC50 (0.3 nM); format: functional
[1] = In vitro immunosuppressive activity measured in the interleukin-2 receptor gene assay (IL-2 RGA) in mitogen-stimulated human T-cell line; relative to FK506
[2] = target: Peptidyl-prolyl cis-trans isomerase FKBP1A (Homo sapiens) (UniProt P62942); test: Immunosuppressive activity in FK506 binding protein 12 binding assay as inhibitory concentration (rIC50) relative to FK506 IC50 (1.2 nM)
Peptidyl-prolyl cis-trans isomerase FKBP1A (Homo sapiens), sequence (P62942 whole entry): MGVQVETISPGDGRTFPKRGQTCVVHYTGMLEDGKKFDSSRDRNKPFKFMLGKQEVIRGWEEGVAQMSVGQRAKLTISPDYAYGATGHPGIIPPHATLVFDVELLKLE

SMILES	rIC50 [1]	rIC50 [2]	rIC50 (Mus musculus)
CC[C@@H]1/C=C(\C)C[C@H](C)C[C@H](OC)[C@H]2O[C@@](O)(C(=O)C(=O)N3CCCC[C@H]3C(=O)O[C@H](/C(C)=C/[C@@H]3CC[C@@H](OC(=S)N(C)C(=O)CCC(=O)OC)[C@H](OC)C3)[C@H](C)[C@@H](O)CC1=O)[C@H](C)C[C@@H]2OC	6.9	2.7	36
CC[C@@H]1/C=C(\C)C[C@H](C)C[C@H](OC)[C@H]2O[C@@](O)(C(=O)C(=O)N3CCCC[C@H]3C(=O)O[C@H](/C(C)=C/[C@@H]3CC[C@@H](OC(=S)NC(=O)C[C@@H]4OC(C)(C)OC4=O)[C@H](OC)C3)[C@H](C)[C@@H](O)CC1=O)[C@H](C)C[C@@H]2OC	12	0.9	12
CC[C@@H]1/C=C(\C)C[C@H](C)C[C@H](OC)[C@H]2O[C@@](O)(C(=O)C(=O)N3CCCC[C@H]3C(=O)O[C@H](/C(C)=C/[C@@H]3CC[C@@H](OC(=O)NNc4ccccc4)[C@H](OC)C3)[C@H](C)[C@@H](O)CC1=O)[C@H](C)C[C@@H]2OC	0.7	1.5	2.5
CC[C@@H]1/C=C(\C)C[C@H](C)C[C@H](OC)[C@H]2O[C@@](O)(C(=O)C(=O)N3CCCC[C@H]3C(=O)O[C@H](/C(C)=C/[C@@H]3CC[C@@H](OC(=O)NC(=O)c4ccccc4)[C@H](OC)C3)[C@H](C)[C@@H](O)CC1=O)[C@H](C)C[C@@H]2OC	1.2	1.3	2.9
CC[C@@H]1/C=C(\C)C[C@H](C)C[C@H](OC)[C@H]2O[C@@](O)(C(=O)C(=O)N3CCCC[C@H]3C(=O)O[C@H](/C(C)=C/[C@@H]3CC[C@@H](O)[C@H](OC)C3)[C@H](C)[C@@H](O)CC1=O)[C@H](C)C[C@@H]2OC [ASCOMYCIN]	1.7	0.9	1.9
CC[C@@H]1/C=C(\C)C[C@H](C)C[C@H](OC)[C@H]2O[C@@](O)(C(=O)C(=O)N3CCCC[C@H]3C(=O)O[C@H](/C(C)=C/[C@@H]3CC[C@@H](OC(=S)NC(=O)CCC(=O)OC)[C@H](OC)C3)[C@H](C)[C@@H](O)CC1=O)[C@H](C)C[C@@H]2OC	4.6	1.6	19
C=CC[C@@H]1/C=C(\C)C[C@H](C)C[C@H](OC)[C@H]2O[C@@](O)(C(=O)C(=O)N3CCCC[C@H]3C(=O)O[C@H](/C(C)=C/[C@@H]3CC[C@@H](O)[C@H](OC)C3)[C@H](C)[C@@H](O)CC1=O)[C@H](C)C[C@@H]2OC [TACROLIMUS ANHYDROUS]	1	1	1

Now from value to compound, other results behind:

rIC50 [1]	rIC50 [2]	SMILES	rIC50 (Mus musculus)
3.5	3.4	CC[C@@H]1/C=C(\C)C[C@H](C)C[C@H](OC)[C@H]2O[C@@](O)(C(=O)C(=O)N3CCCC[C@H]3C(=O)O[C@H](/C(C)=C/[C@@H]3CC[C@@H](OC(=S)NC(=O)c4ccco4)[C@H](OC)C3)[C@H](C)[C@@H](O)CC1=O)[C@H](C)C[C@@H]2OC	7.6
6.5	6.6	CC[C@@H]1/C=C(\C)C[C@H](C)C[C@H](OC)[C@H]2O[C@@](O)(C(=O)C(=O)N3CCCC[C@H]3C(=O)O[C@H](/C(C)=C/[C@@H]3CC[C@@H](OC(=S)NC(=O)c4ccc5ccccc5c4)[C@H](OC)C3)[C@H](C)[C@@H](O)CC1=O)[C@H](C)C[C@@H]2OC	15
3.4	6.3	CC[C@@H]1/C=C(\C)C[C@H](C)C[C@H](OC)[C@H]2O[C@@](O)(C(=O)C(=O)N3CCCC[C@H]3C(=O)O[C@H](/C(C)=C/[C@@H]3CC[C@@H](OC(=S)NC(=O)c4ccccc4)[C@H](OC)C3)[C@H](C)[C@@H](O)CC1=O)[C@H](C)C[C@@H]2OC	11
9	7.3	CC[C@@H]1/C=C(\C)C[C@H](C)C[C@H](OC)[C@H]2O[C@@](O)(C(=O)C(=O)N3CCCC[C@H]3C(=O)O[C@H](/C(C)=C/[C@@H]3CC[C@@H](OC(=S)NC(=O)c4ccc(C(=O)OC)cc4)[C@H](OC)C3)[C@H](C)[C@@H](O)CC1=O)[C@H](C)C[C@@H]2OC	8.4
